The text below walks through data of US20260102383A1, “LPAR1 Inhibitors” (AbbVie Inc., priority 2024, published 2026).

The target in this test is T1, human LPAR1 (Homo sapiens, UniProt Q92633).
T1 construct: host or cells: TangoEDG2-bla U2OS cells
Kind of test: Arrestin assay (Arrestin Reporter EDG2-bla U2OS), inhibition of LPA-stimulated signal. Format: cell-based. As to conditions: TangoEDG2-bla U2OS cells expressing human LPAR1; 0.25 μM LPA; read-out: Arrestin Reporter EDG2-bla U2OS Human Merged IC50. The method, boiled down:
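IC50 comes from a variable-slope 4-parameter fit of % inhibition, calculated from the beta-lactamase FRET ratio (emission 460/530 nm, excitation 409 nm, 2 h development at RT). Compounds, 10 μM down to 0.00006 μM in 3-fold steps, were given 1 h before 0.25 μM final LPA for 3 h in TangoEDG2-bla U2OS cells.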

T1 sequence (Q92633 whole entry): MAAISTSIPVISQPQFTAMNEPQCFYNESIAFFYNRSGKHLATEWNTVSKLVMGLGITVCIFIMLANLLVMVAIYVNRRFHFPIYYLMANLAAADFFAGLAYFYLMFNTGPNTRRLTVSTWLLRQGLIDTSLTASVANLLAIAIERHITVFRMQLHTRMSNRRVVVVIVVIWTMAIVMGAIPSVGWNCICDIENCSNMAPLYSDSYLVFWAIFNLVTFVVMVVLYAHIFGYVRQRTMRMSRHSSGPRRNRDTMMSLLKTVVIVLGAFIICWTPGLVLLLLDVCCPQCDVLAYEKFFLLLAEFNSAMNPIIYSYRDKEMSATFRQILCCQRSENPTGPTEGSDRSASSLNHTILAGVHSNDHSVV

What is called IC50 is the concentration at which inhibition is half-maximal. With `CC(C)COC(=O)N1CCC(CN2CCC(C(=O)Nc3ccc(Cl)cc3OC(F)F)(n3nccc3C(C)C)CC2)(C(=O)O)CC1` [Compound 89, 4-[[4-[[4-chloro-2-(difluoromethoxy)phenyl]carbamoyl]-4-(5-isopropylpyrazol-1-yl)-1-piperidyl]methyl]-1-isobutoxycarbonyl-piperidine-4-carboxylic acid], the IC50 came out at 5.93 nM.
The value for `CC(C)c1ccnn1C1(C(=O)Nc2ccc(Cl)cc2OC(F)F)CCN(C[C@]2(C(=O)O)CCCO2)CC1` [Compound 21, (2S)-2-[[4-[[4-chloro-2-(difluoromethoxy)phenyl]carbamoyl]-4-(5-isopropylpyrazol-1-yl)-1-piperidyl]methyl] tetrabydrofuran-2-carboxylic acid] was 14.6 nM.
The value for `CO[C@H]1CC[C@H]([C@H](CN2CCC(C(=O)Nc3ccc(Cl)cc3OC(F)F)(n3nccc3C(C)C)CC2)C(=O)O)CC1` (single isomer, unassigned) [Compound 185] was 57.4 nM; that for `COCC[C@H](CN1CCC(C(=O)Nc2ccc(Cl)cc2OC(F)F)(n2ncc(F)c2C(C)C)CC1)C(=O)O` [Compound 191, (2R)-2-[[4-[[4-chloro-2-(difluoromethoxy)phenyl]carbamoyl]-4-(4-fluoro-5-isopropyl-pyrazol-1-yl)-1-piperidyl]methyl]-4-methoxy-butanoic acid] was 33.4 nM.
As to `COC[C@H](CN1CCC(C(=O)Nc2ccc(Cl)cc2OC(F)F)(n2nccc2C(C)C)CC1)C(=O)O` [Compound 118, (2S)-2-[[4-[[4-chloro-2-(difluoromethoxy)phenyl]carbamoyl]-4-(5-isopropylpyrazol-1-yl)-1-piperidyl]methyl]-3-methoxy-propanoic acid], the IC50 is 20.8 nM.
Then `CC(C)c1ccnn1C1(C(=O)Nc2ccc(Cl)cc2OC(F)F)CCN(CC2(C(=O)O)CCC(=O)CC2)CC1` [Compound 27, 1-[[4-[[4-chloro-2-(difluoromethoxy)phenyl]carbamoyl]-4-(5-isopropylpyrazol-1-yl)-1-piperidyl]methyl]-4-oxo-cyclohexanecarboxylic acid], with 14.2 nM; and `CC(C)c1ccnn1C1(C(=O)Nc2ccc(Cl)cc2OC(F)F)CCN(CC2(C(=O)O)CCN(C(=O)CC34CC(C3)C4)CC2)CC1` [Compound 53, 1-[2-(1-bicyclo[1.1.1]pentanyl)acetyl]-4-[[4-[[4-chloro-2-(difluoromethoxy)phenyl]carbamoyl]-4-(5-isopropylpyrazol-1-yl)-1-piperidyl]methyl]piperidine-4-carboxylic acid], with 13.5 nM.
The value for `COc1cnn(C2(C(=O)Nc3ccc(Cl)cc3OC(F)F)CCN(CC3(C(=O)O)CCOCC3)CC2)c1C(C)C` [Compound 81, 4-[[4-[[4-chloro-2-(difluoromethoxy)phenyl]carbamoyl]-4-(5-isopropyl-4-methoxy-pyrazol-1-yl)-1-piperidyl]methyl]tetrahydropyran-4-carboxylic acid] was 43 nM.
Take `CC(C)c1c(F)cnn1C1(C(=O)Nc2ccc(Cl)cc2OC(F)F)CCN([C@H]2C[C@](C)(C(=O)O)C2)CC1` [Compound 212, (1r,3r)-3-[4-[[4-chloro-2-(difluoromethoxy)phenyl]carbamoyl]-4-(4-fluoro-5-isopropyl-pyrazol-1-yl)-1-piperidyl]-1-methyl-cyclobutanecarboxylic acid]: the concentration for half-maximal inhibition (IC50) was 46.3 nM.
Regarding `CC1CCc2cnn(C3(C(=O)Nc4ccc(Cl)cc4OC(F)F)CCN(CC4(C(=O)O)CCOCC4)CC3)c21` (stereo not shown) [Compound 91, 4-[[4-[[4-chloro-2-(difluoromethoxy)phenyl]carbamoyl]-4-(6-methyl-5,6-dihydro-4H-cyclopenta[e]pyrazol-1-yl)-1-piperidyl]methy] tetrahydropyran-4-carboxylic acid], the IC50 was found to be 23 nM.
Then `CC(C)c1ccnn1C1(C(=O)Nc2ccc(Cl)cc2OC(F)F)CCN(C[C@@H](C(=O)O)[C@H]2C[C@@H](C)O[C@@H](C)C2)CC1` [Compound 195, (25)-3-[4-[[4-chloro-2-(difluoromethoxy)phenyl]carbamoyl]-4-(5-isopropylpyrazol-1-yl)-1-piperidyl]-2-[(2R,4r,6S)-2,6-dimethyltetrahydropyran-4-yl]propanoic acid], with 67.6 nM; and `CC(C)c1ccnn1C1(C(=O)Nc2ccc(Cl)cc2OC(F)F)CCN(C[C@]2(C(=O)O)CC[C@](C)(O)CC2)CC1` [Compound 175, (1r,4r)-1-[[4-[[4-chloro-2-(difluoromethoxy)phenyl]carbamoyl]-4-(5-isopropylpyrazol-1-yl)-1-piperidyl]methyl]-4-hydroxy-4-methyl-cyclohexanecarboxylic acid], with 122 nM.
Then `CC(C)c1c(F)cnn1C1(C(=O)Nc2ccc(Cl)cc2OC(F)F)CCN(CC2(C(=O)O)CCOCC2)CC1` [Compound 66, 4-[[4-[[4-chloro-2-(difluoromethoxy)phenyl]carbamoyl]-4-(4-fluoro-5-isopropyl-pyrazol-1-yl)-1-piperidyl]methyl]tetrahydropyran-4-carboxylic acid], with 22.8 nM; and `CC(C)c1ccnn1C1(C(=O)Nc2ccc(Cl)cc2OC(F)F)CCN(CC2(C(=O)O)CCN(C(=O)C3CC3)CC2)CC1` [Compound 43, 4-[[4-[[4-chloro-2-(difluoromethoxy)phenyl]carbamoyl]-4-(5-isopropylpyrazol-1-yl)-1-piperidyl]methyl]-1-(cyclopropanecarbonyl) piperidine-4-carboxylic acid], with 27.6 nM; and `CC(C)c1ccnn1C1(C(=O)Nc2ccc(Cl)cc2OC(F)F)CCN(C[C@@H](C(=O)O)N2CCOCC2)CC1` (single isomer, unassigned) [Compound 150, (25)-3-[4-[[4-chloro-2-(difluoromethoxy)phenyl]carbamoyl]-4-(5-isopropylpyrazol-1-yl)-1-piperidyl]-2-morpholino-propanoic acid], with 99.5 nM.
Then `CC(C)c1ccnn1C1(C(=O)Nc2ccc(Cl)cc2OC(F)F)CCN(C2COC(C(=O)O)C2)CC1` (stereo not shown) [Compound 113, 4-[4-[[4-chloro-2-(difluoromethoxy)phenyl]carbamoyl]-4-(5-isopropylpyrazol-1-yl)-1-piperidyl]tetrahydrofuran-2-carboxylic acid], with 141 nM; and `COC[C@H](CN1CCC(C(=O)Nc2ccc(Cl)cc2OC(F)F)(n2ncc(F)c2C(C)C)CC1)C(=O)O` (single isomer, unassigned) [Compound 170], with 33.1 nM; and `CO[C@H]1C[C@@H]([C@H](CN2CCC(C(=O)Nc3ccc(Cl)cc3OC(F)F)(n3nccc3C(C)C)CC2)C(=O)O)C1` [Compound 226], with 39.9 nM.
Consider `COc1ccc([C@H](CN2CCC(C(=O)Nc3ccc(Cl)cc3OC(F)F)(n3nccc3C(C)C)CC2)C(=O)O)cc1` [Compound 28], for which the IC50 stood at 4.82 nM.
Then `COC[C@@H](CN1CCC(C(=O)Nc2ccc(Cl)cc2OC(F)F)(n2nccc2C(C)C)CC1)C(=O)O` (single isomer, unassigned) [Compound 119], with 15.5 nM; and `CCOC(=O)N1CCC(CN2CCC(C(=O)Nc3ccc(Cl)cc3OC(F)F)(n3nccc3C(C)C)CC2)(C(=O)O)CC1` [Compound 6, 4-[[4-[[4-chloro-2-(difluoromethoxy)phenyl]carbamoyl]-4-(5-isopropylpyrazol-1-yl)-1-piperidyl]methyl]-1-ethoxycarbonyl-piperidine-4-carboxylic acid], with 24.7 nM; and `COc1ccc([C@@H](CN2CCC(C(=O)Nc3ccc(Cl)cc3OC(F)F)(n3nccc3C(C)C)CC2)C(=O)O)cc1` [Compound 29, (2S)-3-[4-[[4-chloro-2-(difluoromethoxy)phenyl]carbamoyl]-4-(5-isopropylpyrazol-1-yl)-1-piperidyl]-2-(4-methoxyphenyl) propanoic acid], with 4.75 nM.
Then `CC(C)c1ccnn1C1(C(=O)Nc2ccc(Cl)cc2OC(F)F)CCN(C[C@@H](C(=O)O)[C@H](C)O)CC1` [Compound 223, (2R,3S)-2-[[4-[[4-chloro-2-(difluoromethoxy)phenyl]carbamoyl]-4-(5-isopropylpyrazol-1-yl)-1-piperidyl]methyl]-3-hydroxy-butanoic acid], with 59.5 nM; and `CC(C)c1ccnn1C1(C(=O)Nc2ccc(Cl)cc2OC(F)F)CCN([C@@H]2CO[C@H](C(=O)O)C2)CC1` (single isomer, unassigned) [Compound 137], with 57.2 nM.
On to `CC(C)c1ccnn1C1(C(=O)Nc2ccc(Cl)cc2OC(F)F)CCN([C@H]2C[C@](C(=O)O)(C(F)(F)F)C2)CC1` [Compound 108, (1r,3r)-3-[4-[[4-chloro-2-(difluoromethoxy)phenyl]carbamoyl]-4-(5-isopropylpyrazol-1-yl)-1-piperidyl]-1-(trifluoromethyl)cyclobutanecarboxylic acid], for which the IC50 was 55.8 nM.
The value for `CC(C)c1ccnn1C1(C(=O)Nc2ccc(Cl)cc2OC(F)F)CCN(CC2(C(=O)O)CCCO2)CC1` (stereo not shown) [Compound 13, 2-[[4-[[4-chloro-2-(difluoromethoxy)phenyl]carbamoyl]-4-(5-isopropylpyrazol-1-yl)-1-piperidyl]methyl] tetrahydrofuran-2-carboxylic acid] was 11.2 nM.
On to `CC(C)c1ccnn1C1(C(=O)Nc2ccc(Cl)cc2OC(F)F)CCN(CC(C(=O)O)C2COCCOC2)CC1` (stereo not shown) [Compound 196, 3-[4-[[4-chloro-2-(difluoromethoxy)phenyl]carbamoyl]-4-(5-isopropylpyrazol-1-yl)-1-piperidyl]-2-(1,4-dioxepan-6-yl)propanoic acid], for which the IC50 came out at 34.7 nM.
For the compound `CC(C)c1ccnn1C1(C(=O)Nc2ccc(Cl)cc2OC(F)F)CCN(CC2(C(=O)O)CC2)CC1` [Compound 76, 1-[[4-[[4-chloro-2-(difluoromethoxy)phenyl]carbamoyl]-4-(5-isopropylpyrazol-1-yl)-1-piperidyl]methyl]cyclopropanecarboxylic acid], the IC50 came to 65.5 nM.
